Measured values published in PubChem BioAssay (NCI).
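Grown in 96-well plates, cells were treated for 48 hours with each compound at five concentrations. Insufficient inhibition: endpoint recorded as highest concentration tested. At the GI50, growth is halved. TGI marks complete inhibition of growth.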

What was measured:
Assay in all cases: NCI-60 cell line screen, 48 h
SF-295 CNS = test system: SF-295 CNS
SNB-75 CNS = test system: SNB-75 CNS
UACC-257 melanoma = test system: UACC-257 melanoma
SK-MEL-5 melanoma = test system: SK-MEL-5 melanoma
KM12 colon = test system: KM12 colon
COLO 205 colon = test system: COLO 205 colon
SR leukemia = test system: SR leukemia
UO-31 renal = test system: UO-31 renal
T-47D breast = test system: T-47D breast
SW-620 colon = test system: SW-620 colon

Compound	GI50 (SF-295 CNS) [µM]	TGI (SF-295 CNS) [µM]	GI50 (SNB-75 CNS) [µM]	TGI (SNB-75 CNS) [µM]	GI50 (UACC-257 melanoma) [µM]	TGI (UACC-257 melanoma) [µM]	GI50 (SK-MEL-5 melanoma) [µM]	TGI (SK-MEL-5 melanoma) [µM]	GI50 (KM12 colon) [µM]	TGI (KM12 colon) [µM]	GI50 (COLO 205 colon) [µM]	TGI (COLO 205 colon) [µM]	GI50 (SR leukemia) [µM]	TGI (SR leukemia) [µM]	GI50 (UO-31 renal) [µM]	TGI (UO-31 renal) [µM]	GI50 (T-47D breast) [µM]	TGI (T-47D breast) [µM]	GI50 (SW-620 colon) [µM]	TGI (SW-620 colon) [µM]
NC1(Cc2ccc(Cl)cc2)CCN(c2ncnc3[nH]ccc23)CC1	1.48	13.5	0.437	4.37	13.1	26.5	14.9	28.2	3.02	13.9	3.72	15.1	4.2	31.4	1.54	13	1.59	14.7	4.59	20.4
CC(=O)OC1=CC2(OC(C)=O)CC(C)(C)C1C1C(=O)C=CC(=O)C12 (configuration not stated)		> 100		> 100		> 100		> 100		> 100		> 65.7		> 100		> 100		> 100		> 100
CCOC(=O)Nc1cc2ccccc2c(N=Nc2ccccc2)c1O		> 100		> 100		> 100		> 100		> 100		> 100		> 100		> 100		> 100		> 100
COc1cc2c(c(OC)c1OC)-c1ccc(N=NC(N)=S)c(=O)cc1[C@@H](NC(C)=O)CC2	1.45	> 100	0.256		> 100	> 100	0.324	1.24	0.394		0.26	0.682	0.408	> 100	6.92	> 100	0.361	> 100	0.421	> 100
CC(=O)Nc1n[n+]([O-])c2cc(C)ccc2[n+]1[O-]		12.6		12		18.7		3.87		11.3		8.48		> 100		17.2		11.4		17.5
COc1cnc2c(c1)C(=O)c1c-2n(CCCN2CCC(O)CC2)c(=O)c2cc(Cl)ccc12	0.165	1.67	10.4	24.6	12.2	26.2	1.92	20.4	1.43	3.64	0.661	2.64	0.0888	13.2	0.271	1.59	0.656	4.69	0.253	2.62
Cc1cc(Cl)ccc1C(=O)c1ccc2ccccc2c1C(=O)O		> 100		> 100		> 100		> 100		> 100		> 100		> 100		> 100		> 100		> 100
CN(C)c1cccc(F)c1C(=O)NC(=O)Nc1ccc(Cl)cc1		> 21.4		9.12		> 100		> 100		> 100		> 100		> 100		> 100		> 100		> 100
CC1=Nc2c([nH]c(=S)[nH]c2=O)NC(c2c(Cl)cccc2Cl)C1 (configuration not stated)		4.41		10.6		9.4		9.99		4.51		4.34		1.68		10.2		3.21		2.05
CC(=O)/C=C/c1ccc(OCc2ccc(Cl)cc2)cc1	679	> 1000	457	> 1000	274	> 1000	140	395	513	> 1000	287	> 1000	564	> 1000	556	> 1000	182	> 1000	> 1000	> 1000
O=C1N(Cc2ccccc2Cl)c2ccccc2C12NN=C(c1cccc(Cl)c1)S2 (configuration not stated)	1.71	3.17	1.47	2.84	1.7	3.27	1.71	3.11	1.82	3.79	1.77	3.3	2.14	5.67	1.69	3.26	1.62	3.1	2.02	4.33
Cc1ccc(-n2nnnc2-c2cnc(N3CCOCC3)nc2-c2cccc(C(F)(F)F)c2)cc1	1.1	3.65	1.6	3.98	4.88	> 30.5	0.275	3.42	1.26	3.59	1.81	> 13.5	1.13	3.17	1.14		2.31	> 15.6	1.93	> 25.1
COc1ccc(CCN2CCC(CN(C)Cc3cnn(-c4ccccc4)c3)CC2)cc1	12.1	25.2	8.83	21.2	2.59	7.12	3.96	14.9	15.4	30.8	3.42	11.7	3.92	25.2	3.37	16.2	10.4	30.7	16.5	33.6
COc1cc(Cl)cc(-c2nn(-c3cccc(NC(=O)Nc4ccc(Cl)c(Cl)c4)c3)cc2-c2ccncc2)c1	1.77	7.21	2.11	48.6	1.84	5.19	1.62	3.17	2.02	10.8	1.71	3.31	1.54	5.8	1.89	18.2	2.78	18.9	3.43	> 100
COCCOCCOCc1n(Cc2ccc3ccccc3n2)c2ccccc2[n+]1Cc1ccc2ccccc2n1	1.69	8.19	0.317	4.3	0.277	3.73	0.388	1.48	0.502	6.13	0.284	1.5	0.663	11.8	12.1	36.2	0.302	13.1	2.03	17.2
COc1ccc(NCC(=O)Nn2c(-c3ccccc3)nc3ccccc3c2=O)cc1		> 100		> 100		> 100		32.8		> 100		> 100		> 100		> 100		> 100		82.9
CC(C)(C)OC(=O)NCc1cccc(N=C=S)c1	17.5	40.9	14.1	> 59.6	21.7	54.4	14.9	28.4	16.5	32.8	15.7	33.9	20	> 81.9	15.4	38.8	16.5	36.6	18.9	47.7
O=[N+]([O-])c1cc2no[n+]([O-])c2cc1N1CCCCC1		34.8		9.8		> 36.1		41.7		30.5		30.4		12.2		6.16		5.53		> 100
